Results from publication PMC8386730, “Pyrrolidine-based 3-deoxysphingosylphosphorylcholine analogs as possible candidates against neglected tropical diseases (NTDs): identification of hit compounds towards development of potential treatment of Leishmania donovani” (Journal of Enzyme Inhibition and Medicinal Chemistry, 2021).
Where two headings read alike, the source gives them in different places.

What was measured:
[1] = test system: L. donovani promastigotes; test: Growth inhibition of L. donovani promastigotes (resazurin-based assay); type: cell-based, Leishmania donovani; parameters: Inhibition at both 50 and 25 µM concentrations: unit: %; details: for inhibition at 25 µM / inhibition at 50 µM / IC50: Leishmania donovani, 72 h, incubation 3 days; for inhibition at 25 µM / inhibition at 50 µM: relative to control; for inhibition at 25 µM: read-out: % Inhibition at 25 µM concentration; for inhibition at 50 µM: read-out: % Inhibition at 50 µM concentration; for IC50: extracellular promastigotes, duplicates, read-out: IC50 ± SD, growth of L. donovani promastigotes
Experimental: Out of 20 known Leishmania species pathogenic to humans, L. donovani, which causes visceral leishmaniasis, is the most fatal. Consequently, an in vitro model of L. donovani promastigotes[26] was selected to evaluate the activity of the synthesised pyrrolidine-based 3-deoxysphingosylphosphorylcholine analogs 1e–i, 2a–f, 3a–f at two concentration (50 and 25 µM) employing miltefosine and erufosine (ErPC; erucylphosphocholine) as reference standards using a resazurin-based assay.
For comparison, erufosine and miltefosine were used as reference standards.
L. donovani MHOM/SD/62/1S-CL2D parasites were cultured as promastigotes at 28 °C in M199 medium (Sigma-Aldrich, St. Louis, MO, USA) with 40 mM HEPES, 0.1 mM adenine, 0.0001% biotin, and 4.62 mM NaHCO3 supplemented with 10% foetal bovine serum (FBS, Gibco, Carlsbad, CA, USA), […] penicillin (Gibco), and 100 µg/mL streptomycin (Gibco). Parasites were sub-cultured every 3 or 4 days and maintained for 10 passages.
The plates were analysed using a Victor3TM plate reader (PerkinElmer, Inc., Waltham, MA, USA) at 590 nm (emission) and 530 nm (excitation). Miltefosine and erufosine were used as the reference standards. All measured and calculated values are the averages of duplicates. The dose-response curves were generated by GraphPad Prism 6 software using a sigmoidal dose-response equation with a variable hill slope option.

[2] = test system: intracellular L. donovani amastigotes; test: Intracellular L. donovani amastigotes in infected THP-1 cells (image-based); type: cell-based; details: Leishmania donovani, 72 h, duplicates, read-out: Intracellular L. donovani IC50 ± SD
Excerpt: (§1) As the extracellular promastigotes form represents the insect stage of the parasite, assessment of activity is needed to confirm activity against the intracellular amastigotes form, which is the human host form (mammalian host form). In addition, a preliminary assessment of selectivity and safety might be desirable to evaluate the quality of hit compounds. Accordingly, compound 1e and its enantiomer; 1a, in parallel with standard drugs miltefosine and erufosine were submitted for evaluation in intracellular amastigotes model using infected THP-1 cells; human monocytic cell line derived from an acute monocytic leukaemia. In addition, cytotoxicity of tested compounds and standards were evaluated against THP-1 cells and normal human embryonic kidney cells; HEK293T to evaluate selectivity and safety. PMA-treated THP-1 human monocytic cells were seeded at 0.8 × 10^4 cells per well in a 384-well culture plate (Greiner Bio-One, Kremsmünster, Austria) in RPMI-1640 complete medium supplemented with 10% FBS. After 48 h of incubation at 37 °C in the presence of 5% CO2, infected THP-1 cells were treated with miltefosine (at 80 µM, positive control), and tested compounds (at 200 µM). The negative control consisted of THP-1 infected with the parasite with only 0.5% DMSO. After 72 h, the cells that were infected and treated with the drug were washed with serum-free RPMI-1640 medium. The cells and parasites were stained using 5 µM DAPI and 4% PFA. The images were acquired based on reading using an Operetta® automated microscope (PerkinElmer, Inc., Waltham, MA 02451, USA). They were further analysed using Columbus^TM (PerkinElmer, Inc. Waltham, MA, USA) software to quantify parasite numbers, and host cell numbers. In brief, large-sized nucleus of host cells was first detected using DAPI signal and the host cell boundary masking was performed using the low-intensity signals from cytosols. Then the small-sized nucleus signal by DAPI was used to identify parasites within the area of the masked host cell. The DRC results were further assessed in a dose-dilution manner (two-fold serial dilution for 10 points starting from 200 µM).

[3] = Cytotoxicity against HEK293T cells (resazurin); type: cell-based; details: human, duplicates, read-out: HEK293T CC50 ± SD
Excerpt: As the extracellular promastigotes form represents the insect stage of the parasite, assessment of activity is needed to confirm activity against the intracellular amastigotes form, which is the human host form (mammalian host form). In addition, a preliminary assessment of selectivity and safety might be desirable to evaluate the quality of hit compounds. Accordingly, compound 1e and its enantiomer; 1a, in parallel with standard drugs miltefosine and erufosine were submitted for evaluation in intracellular amastigotes model using infected THP-1 cells; human monocytic cell line derived from an acute monocytic leukaemia. In addition, cytotoxicity of tested compounds and standards were evaluated against THP-1 cells and normal human embryonic kidney cells; HEK293T to evaluate selectivity and safety. Cytotoxicity against HEK293T cell growth was assayed by measuring the conversion of resazurin to resorufin. The assays were performed in 384-well plates that were seeded with HEK293T cells (1000 cells per well). After seeding, the cells were exposed to the compounds for 3 days. Resazurin sodium salt (200 µM; R7017; Sigma-Aldrich, St. Louis, MO, USA) was then added, and the samples were incubated for 5 h. After incubation, the […] were fixed using 4% paraformaldehyde, and the plates were analysed using a Victor3TM plate reader (PerkinElmer, Inc., Waltham, MA, USA) at 590 nm (emission) and 530 nm (excitation). Miltefosine and saponin were used as the reference drugs for the HEK293T growth inhibition.

[4] = Cytotoxicity against THP-1 host cells; type: cell-based, human; details: human, PMA-treated THP-1 monocytic cells infected with the parasite; THP-1 cells, duplicates; read-out: THP-1 cell CC50 ± SD
Excerpt: as §1

THP-1 cells = test: Cytotoxicity against THP-1 host cells; type: cell-based, human; details: CC50 THP-1 divided by IC50 intracellular L. donovani
Excerpt: as §1

[5] = test system: L. donovani promastigotes; parameters: method as in PMID 22506086; details: literature value; read-out: Reported IC50 against L. donovani promastigotes; cited from earlier work

SMILES | IC50 [2] [µM] | IC50 [1] [µM] | inhibition at 25 µM [1] [%] | inhibition at 50 µM [1] [%] | CC50 at 3 days [3] [µM] | CC50 at 72 h [4] [µM] | Selectivity index (THP-1 cells) | Inhibition at both 50 and 25 µM concentrations [1] | Activity at both 50 and 25 µM concentrations (in words) [1] | Potency against promastigotes (in words) ([1]; dose-response evaluation) | IC50 [5] [µM]
CCCCC/C=C\C/C=C\CCCCCCCC(=O)N1CC[C@H](COP(=O)([O-])OCC[N+](C)(C)C)C1 [Compound 2e] |  |  | 34 | 101 |  |  |  |  |  |  | 
CCCCCCCCCCCCCCCC(=O)N1CCC[C@@H]1COP(=O)([O-])OCC[N+](C)(C)C [Compound 1a] | 11.3 ± 1.81 | 52.6 ± 1.44 | 107 | 108 | 30.6 ± 2.31 | 25.3 ± 3.56 | 2.2 | ≥ 100 |  |  | 
CCCCCCCC/C=C\CCCCCCCC(=O)N1CC[C@H](COP(=O)([O-])OCC[N+](C)(C)C)C1 [Compound 2c] |  |  | -19 | 107 |  |  |  |  |  |  | 
CCCCCCCCCCCCCCCC(=O)N1CCC[C@H]1COP(=O)([O-])OCC[N+](C)(C)C [Compound 1e] | 14.3 ± 2.03 | 28.3 ± 1.38 | 107 | 107 | 45.1 ± 5.01 | 15.8 ± 3.23 | 1.1 |  | highly active |  | 
CCCCC/C=C\C/C=C\CCCCCCCC(=O)N1CCC[C@H]1COP(=O)([O-])OCC[N+](C)(C)C [Compound 1h] |  |  | -18 | 0 |  |  |  |  | completely inactive |  | 
CCCCC/C=C\C/C=C\CCCCCCCC(=O)N1CC[C@@H](OP(=O)([O-])OCC[N+](C)(C)C)C1 [Compound 3e] |  |  | 0 | 69 |  |  |  |  |  |  | 
CCCCCCCC/C=C\CCCCCCCCCCCCOP(=O)([O-])OCC[N+](C)(C)C [Erufosine, erucylphosphocholine, reference compound] | 3.61 ± 1.05 | 9.75 ± 2.41 | 106 | 108 | 40.8 ± 3.36 | 3.94 ± 1.02 | 1.1 |  |  |  | 13.3
CCCCCCCC/C=C\CCCCCCCCCCCC(=O)N1CCC[C@H]1COP(=O)([O-])OCC[N+](C)(C)C [Compound 1g] |  | 68.47 ± 0.04 | 110 | 109 |  |  |  |  | highly active |  | 
CCCCCCCCCCCCCCCCOP(=O)([O-])OCC[N+](C)(C)C [Miltefosine, miltefosine, reference compound] | 2.55 ± 0.63 | 4.94 ± 0.47 | 100 | 100 | > 200 | 40.8 ± 3.32 | 16.0 |  |  |  | 3.1
CCCCCC/C=C\CCCCCCCC(=O)N1CCC[C@@H]1COP(=O)([O-])OCC[N+](C)(C)C [Compound 1b] |  | 66.1 ± 3.61 | 108 | 109 |  |  |  | ≥ 100 |  |  | 

Now from value to molecule, other results behind:

IC50 [2] [µM] | IC50 [1] [µM] | SMILES | inhibition at 25 µM [1] [%] | inhibition at 50 µM [1] [%] | CC50 at 3 days [3] [µM] | CC50 at 72 h [4] [µM] | Selectivity index (THP-1 cells) | Inhibition at both 50 and 25 µM concentrations [1] | Activity at both 50 and 25 µM concentrations (in words) [1] | Potency against promastigotes (in words) ([1]; dose-response evaluation) | IC50 [5] [µM]
 | > 100 | CCCCCCCCCCCCCCCC(=O)N1CC[C@@H](OP(=O)([O-])OCC[N+](C)(C)C)C1 [Compound 3a] | 108 | 109 |  |  |  |  | highly active | weak potency | 
 | 54.6 ± 2.02 | CCCCCCCCCCCCCCCC(=O)N1CC[C@H](COP(=O)([O-])OCC[N+](C)(C)C)C1 [Compound 2a] | 107 | 108 |  |  |  |  | highly active |  | 
